From patent US6310056A, “Carbapenem derivatives” (Meiji Seika Kaisha, Ltd., priority 1997, dated 2001)
≈ marks a conversion by molar mass, not a printed value. Where a name gives a salt, the structure may show the parent alone.

Legend:
[1] = Stability against DHP-I, porcine; assay type: in vitro ADME; settings: pig, renal dehydropeptidase i, pH 7, 100 μg (titer)/ml, 37° C., HPLC, read-out: residual amount after 3 hours
Method: (§1) The stabilities of the compounds according to the present invention against porcine and mouse renal dehydropeptidases were measured by the following method.
(§2) Kidney acetone powder, Porcine Type II(Sigma; Lot. 33H7225; 1.5 g) was suspended in a 50 mM Tris.HCl buffer (pH 7.0) containing 20% butanol, and the mixture was stirred at 5° C. for 48 hours. Dialysis (Cellulose tube 30/32; Viskase Sales Corp) was conducted with a 50 mM Tris.HCl buffer (pH 7.0) in order to remove butanol to a level of no smell of butanol. The dialysate was centrifuged at 10000×g (KUBOTA 6800) for 20 minutes to give a supernatant as a partly purified DHP-I, which was divided into portions and stored at -80° C. Also, a partly purified DHP-I was prepared from 1.5 g of Mouse (Lot. 23F8105), and stored in the same manner as above.
(§3) The compounds according to the present invention as a basic pharmaceutical was diluted with sterile purified water to prepare a solution having a titer of 2000 μg/ml. The solution of the compound according to the present invention having a titer of 2000 μg/ml was added to the partly purified DHP-I's of the above described animals so as to have a final concentration of 100 μg (titer)/ml. As a blank, 50 mM Tris.HCl buffer (pH 7.0) was used in place of the partly purified DHP-I's of the animals. After reaction at 37° C. for 3 hours, a portion of the reaction mixture was taken out, diluted with the same amount of methanol to stop the reaction by cooling in ice. The reaction mixture was filtered through SUNPLEP LCR13-LH, MILLIPORE), and subjected to HPLC (column: CAPCELL PACK C18 SG120, SHISEIDO; UV detector; mobile phase: acetonitrile--10 mM aqueous acetic acid solution) to measure the residual amount (%) of […] according to the following equation. [formula]

[2] = Stability against DHP-I, mouse; assay type: in vitro ADME; settings: renal dehydropeptidase i, pH 7, 100 μg (titer)/ml, 37° C., HPLC, read-out: residual amount after 3 hours
Method: as §1, §2, §3

[3] = system: S. aureus M126 (methicillin-hyper resistant strain, MRSA); assay: Anti-microbial activities (MIC); assay type: cell-based; settings: Staphylococcus aureus, Sensitivity Disk agar-N+5% Horse blood, 10^6 CFU/ml, read-out: minimum inhibiting concentration (MIC)
Method: (§4) The minimum inhibiting concentrations (MIC, […]) of the compounds according to the present invention to various pathogenic bacteria was measured in accordance with the method described in CHEMOTHERAPY, vol. 16, No. 1, 99, 1968. The culture medium for measurement was Sensitivity Disk agar-N+5% Horse blood, and the amount of inoculants was 10^6 CFU/ml.
*: methicillin-hyper resistant strain (MRSA);

[4] = system: S. pneumoniae PRC9 (penicillin-hyper resistant strain, PRSP); assay: Anti-microbial activities (MIC); assay type: cell-based; settings: Streptococcus pneumoniae, Sensitivity Disk agar-N+5% Horse blood, 10^6 CFU/ml, read-out: minimum inhibiting concentration (MIC)
Method: as §4
**: penicillin-hyper resistant strain (PRSP);

S. aureus 209P JC-1 = assay: Anti-microbial activities (MIC); assay type: cell-based; settings: Staphylococcus aureus, Sensitivity Disk agar-N+5% Horse blood, 10^6 CFU/ml, read-out: minimum inhibiting concentration (MIC)
Method: as §4

P. vulgaris GN7919 = assay: Anti-microbial activities (MIC); assay type: cell-based; settings: Proteus vulgaris, Sensitivity Disk agar-N+5% Horse blood, 10^6 CFU/ml, read-out: minimum inhibiting concentration (MIC)
Method: as §4

H. influenzae PRC44 = assay: Anti-microbial activities (MIC); assay type: cell-based; settings: Haemophilus influenzae, Sensitivity Disk agar-N+5% Horse blood, 10^6 CFU/ml, read-out: minimum inhibiting concentration (MIC)
Method: as §4

E. coli NIHJ JC-2 = assay: Anti-microbial activities (MIC); assay type: cell-based; settings: Escherichia coli, NIHJJC2, Sensitivity Disk agar-N+5% Horse blood, 10^6 CFU/ml, read-out: minimum inhibiting concentration (MIC)
Method: as §4

S. epidermidis ATCC14990 = assay: Anti-microbial activities (MIC); assay type: cell-based; settings: Staphylococcus epidermidis, Sensitivity Disk agar-N+5% Horse blood, 10^6 CFU/ml, read-out: minimum inhibiting concentration (MIC)
Method: as §4

K. pneumoniae PCI602 = assay: Anti-microbial activities (MIC); assay type: cell-based; settings: Klebsiella pneumoniae, Sensitivity Disk agar-N+5% Horse blood, 10^6 CFU/ml, read-out: minimum inhibiting concentration (MIC)
Method: as §4

C. freundii GN346 = assay: Anti-microbial activities (MIC); assay type: cell-based; settings: Citrobacter freundii, Sensitivity Disk agar-N+5% Horse blood, 10^6 CFU/ml, read-out: minimum inhibiting concentration (MIC)
Method: as §4

E. hirae ATCC8043 = assay: Anti-microbial activities (MIC); assay type: cell-based; settings: Enterococcus hirae, Sensitivity Disk agar-N+5% Horse blood, 10^6 CFU/ml, read-out: minimum inhibiting concentration (MIC)
Method: as §4

B. catarrhalis W-0506 = assay: Anti-microbial activities (MIC); assay type: cell-based; settings: Moraxella catarrhalis, W0506, Sensitivity Disk agar-N+5% Horse blood, 10^6 CFU/ml, read-out: minimum inhibiting concentration (MIC)
Method: as §4

E. faecalis W-73 = assay: Anti-microbial activities (MIC); assay type: cell-based; settings: Enterococcus faecalis, W73, Sensitivity Disk agar-N+5% Horse blood, 10^6 CFU/ml, read-out: minimum inhibiting concentration (MIC)
Method: as §4

H. influenzae PRC2 = assay: Anti-microbial activities (MIC); assay type: cell-based; settings: Haemophilus influenzae, Sensitivity Disk agar-N+5% Horse blood, 10^6 CFU/ml, read-out: minimum inhibiting concentration (MIC)
Method: as §4

Acute toxicity test = assay type: in vivo, mice (ICR, male); settings: intravenous, 2000 mg/kg, mice, n=3
Method: The compound of Example 1 was administered intravenously to mice (ICR, male, n =3) in an amount of 2000 mg/kg.

Row | Structure (SMILES) | remaining at 3 h [1] | remaining at 3 h [2] | MIC [3] | MIC [4] | MIC (S. aureus 209P JC-1) | MIC (P. vulgaris GN7919) | MIC (H. influenzae PRC44) | MIC (E. coli NIHJ JC-2) | MIC (S. epidermidis ATCC14990) | MIC (K. pneumoniae PCI602) | MIC (C. freundii GN346) | MIC (E. hirae ATCC8043) | MIC (B. catarrhalis W-0506) | MIC (E. faecalis W-73) | MIC (H. influenzae PRC2) | survival (acute toxicity) (Acute toxicity test)
1 | C[C@@H](O)[C@H]1C(=O)N2C(C(=O)O)=C(c3cn4cncc4s3)[C@H](C)[C@H]12 [Example 1, (1S,5R,6S)-6-((1R)-1-hydroxyethyl)-2-(imidazo[5,1-b]thiazol-2-yl)-1-methyl-1-carbapen-2-em-3-carboxylic Acid] | 87% | < 2.9% | 3.13 µg/mL (≈ 9.39 µM) | 0.1 µg/mL (≈ 0.3 µM) | < 0.025 µg/mL | 0.05 µg/mL (≈ 0.15 µM) | 0.39 µg/mL (≈ 1.17 µM) | 0.1 µg/mL (≈ 0.3 µM) | < 0.025 µg/mL | 0.1 µg/mL (≈ 0.3 µM) | 1.56 µg/mL (≈ 4.68 µM) | 0.39 µg/mL (≈ 1.17 µM) | < 0.025 µg/mL | 0.2 µg/mL (≈ 0.6 µM) | < 0.025 µg/mL | all of the animals were survived
2 | C[C@@H](O)[C@H]1C(=O)N2C(C(=O)[O-])=C(c3cn4c[n+](C)cc4s3)[C@H](C)[C@H]12 [Example 4, (1S,5R,6S)-6-((1R)-1-hydroxyethyl)-1-methyl-2-(6-methylimidazo[5,1-b]thiazolium-2-yl)-1-carbapen-2-em-3-carboxylate (inner salt)] | 100% | 94% | 3.13 µg/mL | 0.05 µg/mL | < 0.025 µg/mL | 0.1 µg/mL | 0.39 µg/mL | < 0.025 µg/mL | < 0.025 µg/mL | 0.05 µg/mL | 0.1 µg/mL | 0.78 µg/mL | < 0.025 µg/mL | 0.1 µg/mL | 0.05 µg/mL | –
3 | C[C@@H](O)[C@H]1C(=O)N2C(C(=O)O)=C(c3cn4cncc4s3)C[C@H]12 [Example 8, (5R,6S)-6-((1R)-1-hydroxyethyl)-2-(imidazo[5,1-b]thiazol-2-yl)-1-carbapen-2-em-3-carboxylic Acid] | 60% | < 0.2% | 6.25 µg/mL (≈ 19.6 µM) | 0.2 µg/mL (≈ 0.626 µM) | < 0.025 µg/mL | 0.1 µg/mL (≈ 0.313 µM) | 0.78 µg/mL (≈ 2.44 µM) | 0.1 µg/mL (≈ 0.313 µM) | 0.05 µg/mL (≈ 0.157 µM) | 0.05 µg/mL (≈ 0.157 µM) | 0.2 µg/mL (≈ 0.626 µM) | 0.78 µg/mL (≈ 2.44 µM) | < 0.025 µg/mL | 0.39 µg/mL (≈ 1.22 µM) | 0.05 µg/mL (≈ 0.157 µM) | –

Further lines, with some results ahead:

Row | remaining at 3 h [1] | remaining at 3 h [2] | MIC [3] | MIC [4] | MIC (S. aureus 209P JC-1) | MIC (P. vulgaris GN7919) | MIC (H. influenzae PRC44) | MIC (E. coli NIHJ JC-2) | MIC (S. epidermidis ATCC14990) | MIC (K. pneumoniae PCI602) | MIC (C. freundii GN346) | MIC (E. hirae ATCC8043) | MIC (B. catarrhalis W-0506) | MIC (E. faecalis W-73) | MIC (H. influenzae PRC2) | Structure (SMILES) | survival (acute toxicity) (Acute toxicity test)
4 | 72% | 18% | – | – | – | – | – | – | – | – | – | – | – | – | – | C[C@@H](O)[C@H]1C(=O)N2C(C(=O)O)=C(S[C@@H]3CN[C@H](C(=O)N(C)C)C3)[C@H](C)[C@H]12 [C, meropenem, reference compound] | –
5 | 0.6% | 24% | 25 µg/mL (≈ 83.5 µM) | 0.2 µg/mL (≈ 0.668 µM) | < 0.025 µg/mL | 0.1 µg/mL (≈ 0.334 µM) | 12.5 µg/mL (≈ 41.8 µM) | 0.1 µg/mL (≈ 0.334 µM) | < 0.025 µg/mL | 0.2 µg/mL (≈ 0.668 µM) | 0.2 µg/mL (≈ 0.668 µM) | 0.78 µg/mL (≈ 2.61 µM) | < 0.025 µg/mL | 0.78 µg/mL (≈ 2.61 µM) | 0.78 µg/mL (≈ 2.61 µM) | C[C@@H](O)[C@H]1C(=O)N2C(C(=O)O)=C(SCCN=CN)C[C@H]12 [Compound A, imipenem, reference compound] | –
6 | – | – | 6.25 µg/mL | 0.39 µg/mL | < 0.025 µg/mL | 0.1 µg/mL | 0.78 µg/mL | 0.05 µg/mL | 0.05 µg/mL | 0.1 µg/mL | 0.1 µg/mL | 1.56 µg/mL | < 0.025 µg/mL | 3.13 µg/mL | 0.1 µg/mL | C[C@@H](O)[C@H]1C(=O)N2C(C(=O)O)=C(S[C@@H]3CN[C@H](Cc4cn5c[n+](C)cc5s4)C3)[C@H](C)[C@H]12 [Compound B, (1R,5S,6S)-6-((1R)-1-hydroxyethyl)-1-methyl-2-[(3S,5S)-5-(6-methylimidazo[5,1-b]thiazolium-2-yl)methylpyrrolidin-3-yl]thiocarbapen-2-em-3-carboxylic acid iodide, reference compound] | –
